From EPA's ToxValDB 9.5 (doi:10.2903/j.efsa.2008.136r)
≈ marks a conversion by molar mass, not a printed value.

Legend:
Coturnix japonica = settings: reproduction developmental
Oncorhynchus mykiss = settings: acute; duration: 96 hours; mortality
Apis mellifera = settings: acute; duration: 48 hours; oral; unspecified; mortality
Canidae = settings: oral, Dog Other, organ weight
Pimephales promelas = settings: chronic/long-term; duration: 35 days; growth
Daphnia magna = settings: chronic/long-term; duration: 21 days; reproduction
Colinus virginianus = settings: acute, oral, mortality
Typhlodromus pyri = settings: acute; duration: 7 days; mortality
Anas platyrhynchos = settings: oral, mortality

SMILES: Clc1ccc(C2(Cn3cncn3)CC(Br)CO2)c(Cl)c1 (stereo not drawn) [Bromuconazole]
- LC50 (Tagia sp.; acute, duration: 14 days, mortality): > 1000 mg/kg
- NOEC (Tagia sp.; chronic/long-term, duration: 56 days): 37.2 mg/kg
- NOEC (Coturnix japonica): 26.5 mg/kg-day
- LC50 (Oncorhynchus mykiss): 1.7 µg/mL (≈ 4.51 µM)
- LD50 (Apis mellifera): > 100 µg/piece
- NOAEL (Canidae; chronic, duration: 1 years): 2.5 mg/kg-day
- NOAEL (Canidae; subchronic, duration: 90 days): 2.5 mg/kg-day
- NOEC (Pimephales promelas): 0.065 mg/L
- NOEC (Daphnia magna): 0.02 mg/L
- LC50 (Colinus virginianus; diet): > 778 mg/kg-day
- LD50 (Colinus virginianus): > 2150 mg/kg-day
- LEL (Typhlodromus pyri): 260 g/ha
- LD50 (Rattus norvegicus; acute, F, mortality): 328 mg/kg-day
- NOAEL (Rattus norvegicus; chronic, duration: 2 years, oral, diet, histopathology: nonneoplastic): 0.88 mg/kg-day
- NOAEL (Rattus norvegicus; developmental, development): 10 mg/kg-day
- NOEC (Rattus norvegicus; reproduction developmental, reproduction): 1.3 mg/kg-day
- LD50 (Anas platyrhynchos; acute, unspecified): > 2150 mg/kg-day
- LC50 (Anas platyrhynchos; short-term, feed): > 684 mg/kg-day
